The values that follow come from patent US10287301B2 (Achillion Pharmaceuticals, Inc., priority 2015, dated 2019).

In general, IC50 refers to the concentration that inhibits the measured activity by half.

The structures appear in SMILES notation.

Human Factor D, sequence (P00746 26-253): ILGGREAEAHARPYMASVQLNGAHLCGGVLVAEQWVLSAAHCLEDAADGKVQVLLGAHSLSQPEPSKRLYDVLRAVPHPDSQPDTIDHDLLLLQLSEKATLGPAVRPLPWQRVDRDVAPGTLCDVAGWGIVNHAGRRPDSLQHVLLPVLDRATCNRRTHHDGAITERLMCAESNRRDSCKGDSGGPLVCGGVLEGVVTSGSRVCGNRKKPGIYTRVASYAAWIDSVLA

This test has as its target Human Factor D (Homo sapiens (Human), UniProt P00746). Description: Human Factor D Assay. The format is biochemical. As to conditions: Human Factor D, Table 3; read-out: IC50. The procedure, abridged:
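Serum-purified human Factor D (80 nM final) was preincubated with test compound at various concentrations for 5 min at room temperature in 50 mM Tris, 1M NaCl, pH 7.5. Z-L-Lys-SBzl and DTNB were then added at 100 μM each. IC50 came from nonlinear regression of reaction rates versus compound concentration.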
On to `CC(=O)c1nn(CC(=O)N2C[C@H]3C[C@H]3[C@H]2C(=O)Nc2nc(Br)ccc2C)c2c(C)cc(-c3cnc(C)nc3)cc12` [Compound 652, (1R,2S,5S)-3-(2-(3-Acetyl-7-methyl-5-(2-methylpyrimidin-5-yl)-1H-indazol-1-yl)acetyl)-N-(6-bromo-3-methylpyridin-2-yl)-3-azabicyclo[3.1.0]hexane-2-carboxamide], for which the IC50 was less than 1 µM.
For `CC(=O)c1nn(CC(=O)N2C[C@H](F)C[C@H]2C(=O)Nc2cncc(Br)n2)c2ccc(-c3ccc4nc(C)cn4c3)cc12` [Compound 654, (2S,4R)-1-(2-(3-Acetyl-5-(2-methylimidazo[1,2-a]pyridin-6-yl)-1H-indazol-1-yl)acetyl)-N-(6-bromopyrazin-2-yl)-4-fluoropyrrolidine-2-carboxamide] the value was less than 1 µM.
The result for `CC(=O)c1nn(CC(=O)N2C[C@H](F)C[C@H]2C(=O)Nc2cncc(Br)n2)c2ccc(-c3cnc4cc(C5CC5)nn4c3)cc12` [Compound 655, (2S,4R)-1-(2-(3-Acetyl-5-(2-cyclopropylpyrazolo[1,5-a]pyrimidin-6-yl)-1H-indazol-1-yl)acetyl)-N-(6-bromopyrazin-2-yl)-4-fluoropyrrolidine-2-carboxamide] reads less than 1 µM.
For `CC(=O)c1cn(CC(=O)N2C[C@H](F)C[C@H]2C(=O)Nc2cccc(OC(F)(F)F)n2)c2ccc(-c3cnc4cc(C)nn4c3)cc12` [Compound 656, (2S,4R)-1-(2-(3-Acetyl-5-(2-methylpyrazolo[1,5-a]pyrimidin-6-yl)-1H-indol-1-yl)acetyl)-4-fluoro-N-(6-(trifluoromethoxy)pyridin-2-yl)pyrrolidine-2-carboxamide] the value was less than 1 µM; for `CC(=O)c1cn(CC(=O)N2C[C@H](F)C[C@H]2C(=O)Nc2cc(C)cc(Br)n2)c2ccc(-c3cnc4cc(C)nn4c3)cc12` [Compound 657, (2S,4R)-1-(2-(3-Acetyl-5-(2-methylpyrazolo[1,5-a]pyrimidin-6-yl)-1H-indol-1-yl)acetyl)-N-(6-bromo-4-methylpyridin-2-yl)-4-fluoropyrrolidine-2-carboxamide], less than 1 µM.
Take `CC(=O)c1nn(CC(=O)N2C[C@H](F)C[C@H]2C(=O)Nc2cccc(OC(F)F)n2)c2ccc(-c3cnc4cc(C)nn4c3)cc12` [Compound 658, (2S,4R)-1-(2-(3-Acetyl-5-(2-methylpyrazolo[1,5-a]pyrimidin-6-yl)-1H-indazol-1-yl)acetyl)-N-(6-(difluoromethoxy)pyridin-2-yl)-4-fluoropyrrolidine-2-carboxamide]: the IC50 was less than 1 µM.
For `CC(=O)c1nn(CC(=O)N2[C@@H]3C[C@@H]3C[C@H]2C(=O)Nc2cncc(Br)n2)c2ccc(-c3ccc4nc(C)nn4c3)cc12` [Compound 659, (1R,3S,5R)-2-(2-(3-Acetyl-5-(2-methyl-[1,2,4]triazolo[1,5-a]pyridin-6-yl)-1H-indazol-1-yl)acetyl)-N-(6-bromopyrazin-2-yl)-2-azabicyclo[3.1.0]hexane-3-carboxamide] the value was less than 1 µM; for `CC(=O)c1nn(CC(=O)N2[C@@H]3C[C@@H]3C[C@H]2C(=O)Nc2cccc(Br)n2)c2ccc(-c3ccc4nc(C)nn4c3)cc12` [Compound 660, (1R,3S,5R)-2-(2-(3-Acetyl-5-(2-methyl-[1,2,4]triazolo[1,5-a]pyridin-6-yl)-1H-indazol-1-yl)acetyl)-N-(6-bromopyridin-2-yl)-2-azabicyclo[3.1.0]hexane-3-carboxamide], less than 1 µM.
Regarding `CC(=O)c1nn(CC(=O)N2C[C@H](F)C[C@H]2C(=O)Nc2cnc(C)c(Br)n2)c2ccc(-c3cnc4cc(C)nn4c3)cc12` [Compound 662, (2S,4R)-1-(2-(3-Acetyl-5-(2-methylpyrazolo[1,5-a]pyrimidin-6-yl)-1H-indazol-1-yl)acetyl)-N-(6-bromo-5-methylpyrazin-2-yl)-4-fluoropyrrolidine-2-carboxamide], the IC50 was less than 1 µM.
The result for `CC(=O)c1nn(CC(=O)N2C[C@H](F)C[C@H]2C(=O)Nc2cnc(C)c(Br)n2)c2ccc(-c3ccc4nc(C)nn4c3)cc12` [Compound 663, (2S,4R)-1-(2-(3-Acetyl-5-(2-methyl-[1,2,4]triazolo[1,5-a]pyridin-6-yl)-1H-indazol-1-yl)acetyl)-N-(6-bromo-5-methylpyrazin-2-yl)-4-fluoropyrrolidine-2-carboxamide] reads less than 1 µM.
The result for `CC(=O)c1nn(CC(=O)N2[C@@H]3C[C@@H]3C[C@H]2C(=O)Nc2cncc(Br)n2)c2ccc(-c3cnc4ccnn4c3)cc12` [Compound 664, (1R,3S,5R)-2-(2-(3-Acetyl-5-(pyrazolo[1,5-a]pyrimidin-6-yl)-1H-indazol-1-yl)acetyl)-N-(6-bromopyrazin-2-yl)-2-azabicyclo[3.1.0]hexane-3-carboxamide] reads less than 1 µM.
For `CC(=O)c1nn(CC(=O)N2C[C@H](F)C[C@H]2C(=O)Nc2cnc(C)c(Br)n2)c2ccc(-c3cnc4ccnn4c3)cc12` [Compound 665, (2S,4R)-1-(2-(3-Acetyl-5-(pyrazolo[1,5-a]pyrimidin-6-yl)-1H-indazol-1-yl)acetyl)-N-(6-bromo-5-methylpyrazin-2-yl)-4-fluoropyrrolidine-2-carboxamide] the value was less than 1 µM; for `CC(=O)c1nn(CC(=O)N2[C@@H]3C[C@@H]3C[C@H]2C(=O)Nc2cnc(C)c(Br)n2)c2ccc(-c3cnc4cc(C)nn4c3)cc12` [Compound 666, (1R,3S,5R)-2-(2-(3-Acetyl-5-(2-methylpyrazolo[1,5-a]pyrimidin-6-yl)-1H-indazol-1-yl)acetyl)-N-(6-bromo-5-methylpyrazin-2-yl)-2-azabicyclo[3.1.0]hexane-3-carboxamide], less than 1 µM.
On to `CC(=O)c1nn(CC(=O)N2[C@@H]3C[C@@H]3C[C@H]2C(=O)Nc2cnc(C)c(Br)n2)c2ccc(-c3cnc4ccnn4c3)cc12` [Compound 667, (1R,3S,5R)-2-(2-(3-Acetyl-5-(pyrazolo[1,5-a]pyrimidin-6-yl)-1H-indazol-1-yl)acetyl)-N-(6-bromo-5-methylpyrazin-2-yl)-2-azabicyclo[3.1.0]hexane-3-carboxamide], for which the IC50 was less than 1 µM.
The result for `CC(=O)c1nn(CC(=O)N2C[C@H](F)C[C@H]2C(=O)Nc2cccc(OC(F)(F)F)n2)c2ccc(-c3cnc4ccnn4c3)cc12` [Compound 668, (2S,4R)-1-(2-(3-Acetyl-5-(pyrazolo[1,5-a]pyrimidin-6-yl)-1H-indazol-1-yl)acetyl)-4-fluoro-N-(6-(trifluoromethoxy)pyridin-2-yl)pyrrolidine-2-carboxamide] reads less than 1 µM; that for `CC(=O)c1nn(CC(=O)N2[C@@H]3C[C@@H]3C[C@H]2C(=O)Nc2cncc(Br)n2)c2ccc(-c3cnc4cc(C5CC5)nn4c3)cc12` [Compound 669, (1R,3S,5R)-2-(2-(3-Acetyl-5-(2-cyclopropylpyrazolo[1,5-a]pyrimidin-6-yl)-1H-indazol-1-yl)acetyl)-N-(6-bromopyrazin-2-yl)-2-azabicyclo[3.1.0]hexane-3-carboxamide], less than 1 µM; that for `CC(=O)c1nn(CC(=O)N2[C@@H]3C[C@@H]3C[C@H]2C(=O)Nc2cccc(OC(F)(F)F)n2)c2ccc(-c3cnc4cc(C)nn4c3)cc12` [Compound 670, (1R,3S,5R)-2-(2-(3-Acetyl-5-(2-methylpyrazolo[1,5-a]pyrimidin-6-yl)-1H-indazol-1-yl)acetyl)-N-(6-(trifluoromethoxy)pyridin-2-yl)-2-azabicyclo[3.1.0]hexane-3-carboxamide], less than 1 µM.
The result for `CC(=O)c1nn(CC(=O)N2[C@@H]3C[C@@H]3C[C@H]2C(=O)Nc2cccc(OC(F)(F)F)n2)c2ccc(-c3cnc4ccnn4c3)cc12` [Compound 671, (1R,3S,5R)-2-(2-(3-Acetyl-5-(pyrazolo[1,5-a]pyrimidin-6-yl)-1H-indazol-1-yl)acetyl)-N-(6-(trifluoromethoxy)pyridin-2-yl)-2-azabicyclo[3.1.0]hexane-3-carboxamide] reads less than 1 µM.
For `CC(=O)c1nn(CC(=O)N2C[C@H](F)C[C@H]2C(=O)Nc2cccc(OC(F)(F)F)n2)c2ccc(-c3cnc4cc(C5CC5)nn4c3)cc12` [Compound 672, (2S,4R)-1-(2-(3-Acetyl-5-(2-cyclopropylpyrazolo[1,5-a]pyrimidin-6-yl)-1H-indazol-1-yl)acetyl)-4-fluoro-N-(6-(trifluoromethoxy)pyridin-2-yl)pyrrolidine-2-carboxamide] the value was less than 1 µM; for `CC(=O)c1nn(CC(=O)N2[C@@H]3C[C@@H]3C[C@H]2C(=O)Nc2cccc(Br)n2)c2ccc(-c3cnc4cc(C5CC5)nn4c3)cc12` [Compound 673, (1R,3S,5R)-2-(2-(3-Acetyl-5-(2-cyclopropylpyrazolo[1,5-a]pyrimidin-6-yl)-1H-indazol-1-yl)acetyl)-N-(6-bromopyridin-2-yl)-2-azabicyclo[3.1.0]hexane-3-carboxamide], less than 1 µM.
Regarding `CC(=O)c1nn(CC(=O)N2C[C@H](F)C[C@H]2C(=O)Nc2cccc(Br)n2)c2ccc(-c3cnc4cc(C5CC5)nn4c3)cc12` [Compound 674, (2S,4R)-1-(2-(3-Acetyl-5-(2-cyclopropylpyrazolo[1,5-a]pyrimidin-6-yl)-1H-indazol-1-yl)acetyl)-N-(6-bromopyridin-2-yl)-4-fluoropyrrolidine-2-carboxamide], the IC50 is less than 1 µM.
The result for `CC(=O)c1nn(CC(=O)N2C[C@H](F)C[C@H]2C(=O)Nc2cnc(C)c(Br)n2)c2ccc(-c3cnc4cc(C5CC5)nn4c3)cc12` [Compound 675, (2S,4R)-1-(2-(3-Acetyl-5-(2-cyclopropylpyrazolo[1,5-a]pyrimidin-6-yl)-1H-indazol-1-yl)acetyl)-N-(6-bromo-5-methylpyrazin-2-yl)-4-fluoropyrrolidine-2-carboxamide] reads less than 1 µM; that for `CC(=O)c1nn(CC(=O)N2C[C@H](F)C[C@H]2C(=O)Nc2cc(Cl)cc(Br)n2)c2ccc(-c3cnc4cc(C)nn4c3)cc12` [Compound 676, (2S,4R)-1-(2-(3-acetyl-5-(2-methylpyrazolo[1,5-a]pyrimidin-6-yl)-1H-indazol-1-yl)acetyl)-N-(6-bromo-4-chloropyridin-2-yl)-4-fluoropyrrolidine-2-carboxamide], less than 1 µM.
